Assay [1] addresses T1, human MOP receptor (Opioid Receptor Mu 1) (Homo sapiens, UniProt P35372).
T1 construct: gene OPRM1; human MOP receptor with linked TEV protease site (Tango OPRM1-bla U2OS)
The assay is described as follows: Tango β-arrestin recruitment in U2OS cells, antagonist mode against DAMGO EC80, two concentrations only. The following applies: read-out: % Emax at 10 μM (relative to β-funaltrexamine). Format: cell-based.

The target of assay [2] is T1, human MOP receptor (Opioid Receptor Mu 1). Kind of assay: Tango β-arrestin recruitment in U2OS cells, antagonist mode against DAMGO EC80; reference antagonist. In kind it is cell-based. In general terms: Activated receptors often draw arrestin, which recruitment assays turn into a signal.

T1 sequence (P35372 whole entry): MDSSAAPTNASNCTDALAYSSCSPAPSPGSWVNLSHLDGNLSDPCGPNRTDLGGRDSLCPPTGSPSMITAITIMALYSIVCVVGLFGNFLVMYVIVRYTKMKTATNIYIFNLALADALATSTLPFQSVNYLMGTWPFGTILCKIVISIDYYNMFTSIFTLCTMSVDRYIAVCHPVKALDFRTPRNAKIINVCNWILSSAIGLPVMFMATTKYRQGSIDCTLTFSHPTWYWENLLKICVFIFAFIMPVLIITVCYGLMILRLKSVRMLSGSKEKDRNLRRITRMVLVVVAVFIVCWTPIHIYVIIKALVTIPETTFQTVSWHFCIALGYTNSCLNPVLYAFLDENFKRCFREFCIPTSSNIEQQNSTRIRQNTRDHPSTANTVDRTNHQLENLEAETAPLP

On to `Cc1ccc(N2CCN=C2NC(=O)NC(C)CCc2ccc(F)cc2)cc1` (centres unmarked) [7i, 1-[1-(4-methylphenyl)imidazolin-2-yl]-3-[4-(4-fluorophenyl)but-2-yl]urea], for which, in assay [1], the maximal response (Emax) at 10 µM is 48%.

Regarding `COC(=O)/C=C/C(=O)N[C@@H]1CC[C@@]2(O)[C@H]3Cc4ccc(O)c5c4[C@@]2(CCN3CC2CC2)[C@H]1O5` [β-Funaltrexamine], the Emax at 10 µM in assay [2] was 100%.

By Emax is commonly meant the size of the effect at its maximum, as opposed to the concentration needed.
